Assay results from patent US20090136720A1, “Azo Compound, Ink Composition, Recording Method and Colored Article” (priority 2006, published 2009).

Test: Solubility of the azo compound
Assay type: physicochemical
Conditions: water; sodium salt

**Q.** Which solubility does the source give for `Cc1cc(N=Nc2c(S(=O)(=O)O)cc3c(S(=O)(=O)O)c(N=Nc4cc(S(=O)(=O)O)c5cc(S(=O)(=O)O)c(N=Nc6ccc([N+](=O)[O-])cc6S(=O)(=O)O)c(O)c5c4N)ccc3c2O)c(OCCCS(=O)(=O)O)cc1N=Nc1cc(S(=O)(=O)O)cc2cc(S(=O)(=O)O)cc(O)c12` [Compound No. 3] here?
**A.** Its solubility is no less than 100 mg/mL.
